# Measurements published in patent US4360511A, “Amines useful as brain imaging agents” (Medi-Physics, Inc., priority 1980, dated 1982).
# Like-named read-outs stand apart in the source and are kept apart here.
# Assay: Bioassay: distribution of I-123-labeled compounds in organs of rats after tail vein injection (percent dose/gram, brain/blood ratio)
# Assay type: in vivo, Female Sprague-Dawley rats
# Conditions: for Brain/Blood Ratio 5 min. / tissue uptake at 5 min: 5 minutes post-injection; for Brain/Blood Ratio 60 min. / tissue uptake at 1 h: 60 minutes post-injection; for tissue uptake at 5 min / tissue uptake at 1 h: rat, iv, 0.05 to 1.0 mCi, two rats
# Protocol: Female Sprague-Dawley rats weighing approximately 150 g were anesthetized with sodium pentobarbital and were injected in a tail vein with from 0.05 to 1.0 mCi (in a volume of 0.2 to 0.5 ml) of the I-123-labeled compound. Two specimens were utilized for each test.
# Two animals each were sacrificed at 5 minutes and 60 minutes post-injection, the tails discarded and the amount of activity in various organs determined. Each organ was counted at a standardized geometry with a sodium iodide crystal scintillation counter adjusted for the 159 keV emission of I-123. The organs were also weighed to one thousandth of a gram and the activity calculated as a percent of administered dose per gram of organ weight.
# The ratio of brain-to-blood activity was calculated as a percent of administered dose per gram.
# [1] = blood, read-out: Percent Dose/Gram Blood 5 min.
# [2] = blood, read-out: Percent Dose/Gram Blood 60 min.
# [3] = brain, read-out: Percent Dose/Gram Brain 5 min.
# [4] = brain, read-out: Percent Dose/Gram Brain 60 min.
# [5] = heart, read-out: Percent Dose/Gram Heart 5 min.
# [6] = heart, read-out: Percent Dose/Gram Heart 60 min.
Structure (SMILES),Brain/Blood Ratio 5 min.,Brain/Blood Ratio 60 min.,tissue uptake at 5 min [1],tissue uptake at 1 h [2],tissue uptake at 5 min [3],tissue uptake at 1 h [4],tissue uptake at 5 min [5],tissue uptake at 1 h [6]
CC(Cc1ccccc1)Nc1ccccc1[123I] (racemic) [I--123-N--(o-iodophenyl)amphetamine (dl)],1.81,0.75,0.53 %ID/g,0.55 %ID/g,0.96 %ID/g,0.41 %ID/g,1.64 %ID/g,0.57 %ID/g
CC(Cc1ccccc1)NCCc1ccccc1[123I] (racemic) [I--123-N--o-iodo-β-phenethylamphetamine (dl)],7.13,7.86,0.12 %ID/g,0.11 %ID/g,0.82 %ID/g,0.83 %ID/g,2.02 %ID/g,0.48 %ID/g
CC(Cc1ccccc1)NCc1ccccc1[123I] (racemic) [I--123-N--o-iodobenzylamphetamine (dl)],3.93,1.89,0.27 %ID/g,0.19 %ID/g,1.06 %ID/g,0.36 %ID/g,0.72 %ID/g,0.37 %ID/g
"CCN(Cc1ccccc1I)Cc1ccccc1[123I] [I--123-N,N--di-o-iodobenzylethylamine]",0.68,0.88,0.52 %ID/g,0.28 %ID/g,0.36 %ID/g,0.25 %ID/g,2.11 %ID/g,0.5 %ID/g
"[123I]c1ccccc1CCN(CCc1ccccc1)CCc1ccccc1 [I--123-N,N--di-β-phenethyl-o-iodo-β-phenethylamine]",0.24,0.17,0.83 %ID/g,0.65 %ID/g,0.2 %ID/g,0.11 %ID/g,1.18 %ID/g,0.62 %ID/g
"[123I]c1ccccc1CN(CCc1ccccc1)CCc1ccccc1 [I--123-N,N--di-β-phenethyl-o-iodobenzylamine]",1.03,,1.03 %ID/g,,1.06 %ID/g,,3.61 %ID/g,
"[123I]c1ccc(N(Cc2ccccc2)Cc2ccccc2)cc1 [I--123-N,N--dibenzyl-p-iodoaniline]",0.53,0.54,0.66 %ID/g,0.41 %ID/g,0.35 %ID/g,0.22 %ID/g,2.1 %ID/g,0.46 %ID/g
"CC(C)N(Cc1ccccc1[123I])C(C)C [I--123-N,N--diisopropyl-o-iodobenzylamine]",5.73,1.31,0.25 %ID/g,0.35 %ID/g,1.4 %ID/g,0.46 %ID/g,2.12 %ID/g,0.46 %ID/g
"Cc1cccc(C)c1NC(=O)CNCCc1ccccc1[123I] [I--123-N--(2,6-dimethylphenylcarbamoyl)methyl-o-iodo-β-phenethylamine]",1.33,0.31,0.55 %ID/g,0.26 %ID/g,0.73 %ID/g,0.08 %ID/g,0.74 %ID/g,0.21 %ID/g
[123I]c1ccccc1NCc1ccccc1 [I--123-N--benzyl-o-iodoaniline],2.23,0.80,0.3 %ID/g,0.36 %ID/g,0.67 %ID/g,0.29 %ID/g,0.34 %ID/g,1.25 %ID/g
[123I]c1ccc(NCc2ccccc2)cc1 [I--123-N--benzyl-p-iodoaniline],1.57,0.51,1 %ID/g,0.86 %ID/g,1.57 %ID/g,0.44 %ID/g,1.28 %ID/g,0.59 %ID/g
CCNCc1ccccc1[123I] [I--123-N--ethyl-o-iodobenzylamine],4.22,1.31,0.25 %ID/g,0.34 %ID/g,1.06 %ID/g,0.44 %ID/g,0.79 %ID/g,0.44 %ID/g
CC(C)NCc1cccc([123I])c1 [I--123-N--isopropyl-m-iodobenzylamine],7.35,4.16,0.22 %ID/g,0.21 %ID/g,1.61 %ID/g,0.85 %ID/g,0.99 %ID/g,0.46 %ID/g
CC(C)NCCc1ccccc1[123I] [I--123-N--isopropyl-o-iodo-β-phenethylamine],8.58,5.83,0.12 %ID/g,0.12 %ID/g,1.03 %ID/g,0.67 %ID/g,0.88 %ID/g,0.27 %ID/g
CC(C)Nc1ccccc1[123I] [I--123-N--isopropyl-o-iodoaniline],1.13,0.26,0.78 %ID/g,0.5 %ID/g,0.88 %ID/g,0.13 %ID/g,0.75 %ID/g,0.29 %ID/g
"CC(C)NCc1ccccc1[123I] [I--123-N--isopropyl-o-iodobenzylamine, I-123-N-isopropyl-o-iodobenzylamine]",7.63,1.04,0.16 %ID/g,0.62 %ID/g,1.21 %ID/g,0.64 %ID/g,0.72 %ID/g,0.47 %ID/g
CC(C)Nc1ccc([123I])cc1 [I--123-N--isopropyl-p-iodoaniline],2.55,0.33,0.48 %ID/g,0.79 %ID/g,1.23 %ID/g,0.26 %ID/g,1.01 %ID/g,0.61 %ID/g
CNCCc1ccccc1[123I] [I--123-N--methyl-o-iodo-β-phenethylamine],0.49,,1.16 %ID/g,,0.57 %ID/g,,1.07 %ID/g,
[123I]c1ccccc1CCN1CCCCC1 [I--123-N--o-iodo-β-phenethylpiperidine],2.35,,0.46 %ID/g,,1.08 %ID/g,,1.68 %ID/g,
"CC1CCC(C)N1Cc1ccccc1[123I] (stereo not shown) [I--123-N--o-iodobenzyl-2,5-dimethylpyrrolidine]",3.17,1.52,0.37 %ID/g,0.15 %ID/g,1.16 %ID/g,0.22 %ID/g,1.03 %ID/g,0.46 %ID/g
"CC1CCCC(C)N1Cc1ccccc1[123I] (stereo not shown) [I--123-N--o-iodobenzyl-2,6-dimethylpiperidine]",3.32,1.59,0.31 %ID/g,0.21 %ID/g,1.01 %ID/g,0.32 %ID/g,1.14 %ID/g,0.44 %ID/g
[123I]c1ccccc1CNc1ccccc1 [I--123-N--o-iodobenzylaniline],1.70,0.41,0.61 %ID/g,0.41 %ID/g,1.02 %ID/g,0.17 %ID/g,0.83 %ID/g,0.31 %ID/g
[123I]c1ccccc1CN1CCCCC1 [I--123-N--o-iodobenzylpiperidine],1.56,0.91,0.6 %ID/g,0.32 %ID/g,0.93 %ID/g,0.29 %ID/g,0.56 %ID/g,0.38 %ID/g
CCCNCCc1ccccc1[123I] [I--123-N--propyl-o-iodo-β-phenethylamine],4.03,2.20,0.29 %ID/g,0.2 %ID/g,1.17 %ID/g,0.44 %ID/g,1.54 %ID/g,0.23 %ID/g
CCCNCc1ccccc1[123I] [I--123-N--propyl-o-iodobenzylamine],3.81,1.84,0.27 %ID/g,0.32 %ID/g,1.03 %ID/g,0.59 %ID/g,0.77 %ID/g,0.59 %ID/g
"CC(C)(C)NCc1ccccc1[123I] [I--123-N--t-butyl-o-iodobenzylamine, I-123-N-t-butyl-o-iodobenzylamine]",8.85,8.16,0.17 %ID/g,0.11 %ID/g,1.49 %ID/g,0.89 %ID/g,1.04 %ID/g,0.49 %ID/g
